Laboratory results taken from patent publication US20240374626A1, “METHODS OF ENHANCING MILK PRODUCTION IN LACTATING MAMMALIAN SUBJECTS” (priority 2023, published 2024).

How the values were obtained:
[1] = system: MG alveoli; assay: Contralateral intraductal injection: milk staining (IHC) integrated density per alveolus; type: in vivo, mouse; details: Mk-1775 IDI at PD16.5 vs contralateral DMSO, LD5 MGs
Method: Nulliparous analysis was performed using adult (10-12-week-old) female mice. For timed pregnancies and lactation analysis, CD-1 pregnant adult females were obtained from Charles Rivers. Embryos were examined at the time of mammary gland harvesting to confirm pregnancy state. […] Plugged mice were considered to be PD0.5 on the day of the observed plug. All females used in this study were age matched.
Mice were anesthetized with isoflurane (VetOne, 501017) Prior to intraductal injections, hair was removed from around the nipples using Nair hair remover. Injections into the duct of the nipple were performed with 33 G needles (Hamilton, 7803-05) and a volume of 40 μl per gland. […]
Mammary gland tissue was fixed in 10% neutral buffered formalin (EMD Millipore, MR0458682) at 4° C. overnight. […] Incubation with secondary antibodies [(donkey anti-Rat 647 (Thermo-Invitrogen; A48272) and donkey anti-Rabbit 488 (Thermo-Invitrogen; A32790)] was performed for 2 h at room temperature. Sections were washed with 0.3% triton in PBS for 30 min (×3) at room temperature and mounted using flouromount-G (Southern Biotech, 0100-01). Image acquisition was performed using Zeiss Axio Imager Microscope. Macros were generated to quantify lumen milk integrated density per alveolus using Image J.

[2] = system: HC11 cells; assay: FACS DNA content analysis of HC11 cells during lactogenic differentiation; type: cell-based, mouse; details: HC11, doxorubicin 50 nM
Method: The HC11 cell line was obtained from American Type Culture Collection (ATCC) and routinely checked for mycoplasma (Mycoplasma PCR kit, ABM, G238). Undifferentiated HC11 cells were cultured in growing medium (RPMI-1640; Thermo Fisher Scientific, 72400047), supplemented with 10% FBS, 5 μg/ml insulin (Millipore-Sigma, 16634), 10 ng/ml epidermal growth factor (EGF; Preprotech, AF-100-15) and 1× AntiAnti (Thermo Fisher Scientific, 15240112) at 37° C. with 5% CO2. Cells were grown to confluency and maintained in growing medium for 2 days, until they became competent. Competent HC11 cells were primed for differentiation by culturing them in priming medium [RPMI-1640 supplemented with 5 μg/ml insulin, 1 μM dexamethasone (Millipore-Sigma, D4902-1 G) and 1× Anti-Anti] for 24 h at 37° C. with 5% CO2. To induce differentiation, primed HC11 cells were cultured in DIP Medium [RPMI-1640, supplemented with 10% FBS, 5 μg/ml insulin, 1 μM dexamethasone, 1× anti-anti and 3 μg/ml Prolactin (NHPP, oPRL-21)] at 37° C. with 5% CO2.
[…] Drugs were maintained through the differentiation process and added with every change of media.
For DNA content analysis of the mammary gland CK8^+ epithelial population, mammary gland cells suspension was obtained as described above. Cells were fixed in ice-cold 70% EtOH at a final concentration of 10^6 cells/ml. During fixation, cells were vigorously vortexed for 1 min to avoid the formation of cell aggregates. Cells were washed twice with washing buffer [1×PBS containing 5% FBS and 0.5% tween 20 (Fisher Chemical, BP337500)] and centrifuged at 2,000 rpm for 5 min at 4° C. Cell pellet was incubated for 1 h at room temperature with anti-CK8 (Developmental Studies Hybridoma Lab, TROMA-1), anti-GFP (Thermo Fisher, A01704) or corresponding rat (Thermo-Fisher, 10700) or rabbit (Thermo-Fisher, 10500C) IgG isotype controls. Cells were washed twice and incubated for 1 h at room temperature in darkness with FITC anti-Rat (Thermo Fisher, A24544) or FITC anti-Rabbit (Thermo Fisher, A16030) and APC anti-Rat (Jackson ImmunoResearch, 712-136-153). Cells were washed twice and resuspended in propidium iodide solution [1×PBS containing 25 μg/ml of propidium iodide (Thermo Fisher, P3566) and 100 μg/ml of RNAse (Thermo Fisher, 12091021)]. For DNA content analysis on HC11, cells were washed with 1×DPBS (GIBCO, 14190-250) and harvested using 0.05% Trypsin-EDTA (GIBCO, 25300-062). Cell suspension was washed with 1×DPBS and centrifuged at 1,000 rpm for 5 min at 4° C. Cell pellet was fixed in ice-cold 70% EtOH and then vortexed vigorously to avoid cell aggregates. After fixation, cells were washed with washing buffer [1×PBS (GIBCO, 14190136) supplemented with 5% FBS] and centrifuged at 2,000 rpm for 5 min at 4° C. The pellet was resuspended in propidium iodide solution. Cell suspensions were filtered through a 70 μm cell strainer (Falcon, 08-771-2) and analyzed using a BD LSRII cytometer or a BD FACS Aria II Cell Sorter. Populations were analyzed using FlowJo.

SMILES	decrease in milk production (IHC, milk integrated density per alveolus) [1] [%]	polyploidization (FACS DNA content) ([2]; DIP3)	proportion of tetraploid cells (FACS DNA content) ([2]; after 24 h)
C=CCn1c(=O)c2cnc(Nc3ccc(N4CCN(C)CC4)cc3)nc2n1-c1cccc(C(C)(C)O)n1 [Mk-1775]	21	–	–
COc1cccc2c1C(=O)c1c(O)c3c(c(O)c1C2=O)C[C@@](O)(C(=O)CO)C[C@@H]3O[C@H]1C[C@H](N)[C@H](O)[C@H](C)O1 [doxorubicin]	–	increase in polyploidization	increases
